Series [1] in a line: Solubility assessment (UHPLC-UV of supernatant, target 10 mg/ml). The class given is physicochemical. The following applies: for solubility at 24 h: read-out: Soluble amount. The method, boiled down:
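Peptides at 10 mg/ml (purity-corrected) in 100 mM phosphate pH 7.4, optionally with 2.7 mg/ml m-cresol; gentle agitation 1 h, then 5° C. overnight (24 h). Supernatant after 15 min centrifugation at 2500 RCF quantified by UHPLC-UV, with sequence-based extinction coefficients.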

The target of series [2] is T1, human GLP-1 receptor (hGLP-1R) (Homo sapiens, UniProt P43220). Nature of the series: In vitro cellular cAMP assay for GLP-1 receptor efficacy (HEK-293 cell line over-expressing receptor). The class given is cell-based. The conditions noted are these: HEK-293, 0.1% BSA.
In series [3] the target is T1, human GLP-1 receptor (hGLP-1R). Nature of the series: Binding assay, displacement of [125I]GLP-1 from HEK-293 membranes over-expressing GLP-1R (SPA). The following applies: [125I]GLP-1 displacement. As to the method:
(1) Preparation of Membranes from HEK-293 Cells Over-Expressing GIPR or GLP-1R
HEK-293 cells recombinantly over-expressing GIPR or GLP-1R were grown to 50% confluency, washed with warm 1×PBS (Gibco) and detached in HEPES/EDTA-buffer (100 mM HEPES pH 7.5, 5 mM EDTA). Cells were harvested by centrifugation at 4° C. and 3000×g and the pellets were stored at −80° C. until further processing.
After thawing on ice, pellets were resuspended in HEPES/EDTA-buffer and homogenized on ice for 1 min using Ultra-Turray T25. After subsequent sonification the cell debris was removed by centrifugation at 1000×g and 4° C. Supernatants were then ultra-centrifuged at 100000×g and 4° C. under vacuum for 30 min. Pellets were resuspended in HEPES/EDTA/NaCl-buffer (20 mM HEPES, 1 mM EDTA, 150 mM NaCl; add 1 Complete Mini Protease inhibitor cocktail to 10 ml buffer) and protein content was determined via BCA-Protein assay.
(2) Measurement of Binding Activity of Test Compounds to Human GIPR or GLP-1R
For orientation: In a radioligand displacement assay an active substance lowers the binding of a labelled ligand.

The target of series [4] is T2, human GIP receptor (hGIPR) (Homo sapiens, UniProt P48546).
T2 sequence (P48546 22-466): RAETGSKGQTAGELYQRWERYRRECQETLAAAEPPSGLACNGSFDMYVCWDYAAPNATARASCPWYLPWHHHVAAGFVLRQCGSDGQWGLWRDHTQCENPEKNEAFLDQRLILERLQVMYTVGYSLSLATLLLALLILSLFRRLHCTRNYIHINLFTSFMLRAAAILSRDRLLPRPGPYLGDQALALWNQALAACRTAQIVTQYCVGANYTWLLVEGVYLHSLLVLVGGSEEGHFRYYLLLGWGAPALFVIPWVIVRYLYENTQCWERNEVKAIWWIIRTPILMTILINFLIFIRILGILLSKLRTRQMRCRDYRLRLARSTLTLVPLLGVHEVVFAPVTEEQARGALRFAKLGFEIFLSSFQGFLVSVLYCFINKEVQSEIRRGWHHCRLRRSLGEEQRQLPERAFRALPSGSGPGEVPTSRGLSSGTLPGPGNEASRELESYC
Nature of the series: In vitro cellular cAMP assay for GIP receptor efficacy (HEK-293 cell line over-expressing receptor). The class given is cell-based.

Series [5] deals with T2, human GIP receptor (hGIPR). Nature of the series: Binding assay, displacement of [125I]GIP from HEK-293 membranes over-expressing GIPR (SPA). The conditions noted are these: [125I]GIP displacement. A digest of the protocol:
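Membranes from HEK-293 cells over-expressing human GIPR or GLP-1R, isolated by homogenising, sonicating and ultracentrifuging at 100000×g into HEPES/EDTA/NaCl buffer with protease inhibitors, were used for binding.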

For another series, the target named is T3, human GIP receptor (Homo sapiens, UniProt P48546).
T3 construct: human adipocytes endogenously expressing the human GIP receptor; host or cells: human preadipocytes (Lonza) differentiated to adipocytes
T3 sequence (P48546 22-466): T2 sequence (P48546 22-466)
Nature of the series: In vitro cellular cAMP assay for GIP receptor efficacy (human adipocytes). Type of series: cell-based. The following applies: for EC50: read-out: hGIPR EC50; for Emax: read-out: hGIPR Emax. A digest of the protocol: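 Human preadipocytes expanded, then differentiated 6 days (insulin, dexamethasone, PPARγ agonist, 200 μM IBMX, L-thyroxine) before plating at 5000 cells/well. Test compound applied 30 min at room temperature; cAMP measured by HTRF after 1 h with lysis-buffer reagents, read as 665/620 nm fluorescence ratio.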
(In general: Changes in cAMP serve as a functional read-out for many G protein-coupled receptors.)

Where [6] appears, read: 100 mM phosphate buffer pH 7.4 (solubility buffer system A), pH 7.4, Solubility buffer system A: 100 mM phosphate buffer pH 7.4.
Setting [7] is: pH 7.4, Solubility buffer system C: 100 mM phosphate buffer pH 7.4, 2.7 mg/ml m-cresol.
Where [8] appears, read: EC50 hGIPR 0.1% BSA, HEK-293, 0.1% BSA.

Converted amounts (≈) assume the structure as drawn. Read-outs that look alike come from different tables or passages of the source.

The record followed here is patent US20240360194A1, “New Peptides as Potent and Selective GIP Receptor Agonists” (Sanofi, priority 2021, published 2024).

T1 sequence (P43220 24-463): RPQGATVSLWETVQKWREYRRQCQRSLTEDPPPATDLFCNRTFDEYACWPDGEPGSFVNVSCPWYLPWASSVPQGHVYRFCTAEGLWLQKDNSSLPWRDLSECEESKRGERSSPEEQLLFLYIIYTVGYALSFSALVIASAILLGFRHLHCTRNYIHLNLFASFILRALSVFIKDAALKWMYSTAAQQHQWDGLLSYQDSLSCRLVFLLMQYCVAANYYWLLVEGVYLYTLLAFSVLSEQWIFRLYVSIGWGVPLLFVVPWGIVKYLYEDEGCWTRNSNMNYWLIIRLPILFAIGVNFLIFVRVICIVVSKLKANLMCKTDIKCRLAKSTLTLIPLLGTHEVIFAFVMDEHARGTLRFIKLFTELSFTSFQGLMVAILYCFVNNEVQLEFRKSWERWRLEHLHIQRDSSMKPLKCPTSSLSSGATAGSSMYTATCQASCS

With `CC[C@H](C)[C@H](NC(=O)[C@H](CCCNC(=N)N)NC(=O)[C@H](CC(=O)O)NC(=O)[C@H](CCCCNC(=O)COCCOCCNC(=O)COCCOCCNC(=O)CC[C@H](NC(=O)CC[C@H](NC(=O)CCCCCCCCCCCCCCCCC(=O)O)C(=O)O)C(=O)O)NC(=O)C(C)(C)NC(=O)[C@@H](NC(=O)[C@H](CO)NC(=O)[C@H](CC(C)C)NC(=O)[C@H](CC(=O)O)NC(=O)[C@H](CO)NC(=O)[C@@H](NC(=O)[C@H](Cc1ccccc1)NC(=O)[C@@H](NC(=O)CNC(=O)[C@H](CCC(=O)O)NC(=O)C(C)(C)NC(=O)[C@@H](N)Cc1ccc(O)cc1)[C@@H](C)O)[C@@H](C)CC)[C@@H](C)CC)C(=O)N[C@@H](Cc1c[nH]cn1)C(=O)N[C@@H](CCC(N)=O)C(=O)NC(C)(C)C(=O)N[C@@H](CCC(=O)O)C(=O)N[C@@H](Cc1ccccc1)C(=O)N[C@H](C(=O)N[C@@H](CCC(=O)O)C(=O)N[C@@H](Cc1c[nH]c2ccccc12)C(=O)N[C@@H](CC(C)C)C(=O)N[C@@H](CC(C)C)C(=O)N[C@@H](C)C(=O)N[C@@H](CCC(N)=O)C(=O)N[C@@H](CCCNC(=N)N)C(=O)NCC(N)=O)[C@@H](C)CC` [SEQ ID NO: 9, H2N-Y-Aib-E-G-T-F-I-S-D-L-S-I-Aib-K[{AEEA}2-{gGlu}2-C18OH]-D-R-I-H-Q-Aib-E-F-I-E-W-L-L-A-Q-R-G-NH2], the solubility at 24 h in series [1] (setting [6]) is greater than 10200 µg/mL; in series [1] (setting [7]), 7700 µg/mL (≈ 1720 µM). In addition, the EC50 – broadly, the midpoint of the concentration-response curve – was greater than 10 nM in series [2], 0.00917 nM in series [4] (setting [8]) and 0.8 nM on human GIP receptor. For the same compound, the 50% inhibitory concentration (IC50) – broadly, the midpoint of a concentration-inhibition curve – in series [3] turned out to be 224 nM; in series [5] it was 0.6 nM. Also, on human GIP receptor, the Emax (as a rule, the greatest response seen or fitted, relative to the assay's reference) came to 108%.

In the case of `CC[C@H](C)[C@H](NC(=O)[C@H](CCCNC(=N)N)NC(=O)[C@H](CC(=O)O)NC(=O)[C@H](CCCCNC(=O)COCCOCCNC(=O)COCCOCCNC(=O)CC[C@H](NC(=O)CC[C@H](NC(=O)CCCCCCCCCCCCCCCCCCC(=O)O)C(=O)O)C(=O)O)NC(=O)C(C)(C)NC(=O)[C@@H](NC(=O)[C@H](CO)NC(=O)[C@H](CC(C)C)NC(=O)[C@H](CC(=O)O)NC(=O)[C@H](CO)NC(=O)[C@@H](NC(=O)[C@H](Cc1ccccc1)NC(=O)[C@@H](NC(=O)CNC(=O)[C@H](CCC(=O)O)NC(=O)C(C)(C)NC(=O)[C@@H](N)Cc1ccc(O)cc1)[C@@H](C)O)[C@@H](C)CC)[C@@H](C)CC)C(=O)N[C@@H](Cc1c[nH]cn1)C(=O)N[C@@H](CCC(N)=O)C(=O)NC(C)(C)C(=O)N[C@@H](CCC(=O)O)C(=O)N[C@@H](Cc1ccccc1)C(=O)N[C@H](C(=O)N[C@@H](CCC(=O)O)C(=O)N[C@@H](Cc1c[nH]c2ccccc12)C(=O)N[C@@H](CC(C)C)C(=O)N[C@@H](CC(C)C)C(=O)N[C@@H](C)C(=O)N[C@@H](CCC(N)=O)C(=O)N[C@@H](CCCNC(=N)N)C(=O)NCC(N)=O)[C@@H](C)CC` [SEQ ID NO: 10, H2N-Y-Aib-E-G-T-F-I-S-D-L-S-I-Aib-K[{AEEA}2-{gGlu}2-C20OH]-D-R-I-H-Q-Aib-E-F-I-E-W-L-L-A-Q-R-G-NH2], the solubility at 24 h in series [1] (setting [6]) came to 7300 µg/mL (≈ 1620 µM); in series [1] (setting [7]), 7200 µg/mL (≈ 1600 µM). Moreover, the EC50 in series [2] is greater than 10 nM; in series [4] (setting [8]), 0.0222 nM; at human GIP receptor, 1.2 nM. In addition, the IC50 in series [3] came to 183 nM; in series [5], 0.5 nM. Further, the Emax on human GIP receptor was found to be 98%.

For the compound `CC[C@H](C)[C@H](NC(=O)[C@H](CCCNC(=N)N)NC(=O)[C@H](CC(=O)O)NC(=O)[C@H](CCCCNC(=O)COCCOCCNC(=O)COCCOCCNC(=O)CC[C@H](NC(=O)CCCCCCCCCCCCCCCCCCC(=O)O)C(=O)O)NC(=O)C(C)(C)NC(=O)[C@@H](NC(=O)[C@H](CO)NC(=O)[C@H](CC(C)C)NC(=O)[C@H](CC(=O)O)NC(=O)[C@H](CO)NC(=O)[C@@H](NC(=O)[C@H](Cc1ccccc1)NC(=O)[C@@H](NC(=O)CNC(=O)[C@H](CCC(=O)O)NC(=O)C(C)(C)NC(=O)[C@@H](N)Cc1ccc(O)cc1)[C@@H](C)O)[C@@H](C)CC)[C@@H](C)CC)C(=O)N[C@@H](Cc1c[nH]cn1)C(=O)N[C@@H](CCC(N)=O)C(=O)NC(C)(C)C(=O)N[C@@H](CCC(=O)O)C(=O)N[C@@H](Cc1ccccc1)C(=O)N[C@H](C(=O)N[C@@H](CCC(=O)O)C(=O)N[C@@H](Cc1c[nH]c2ccccc12)C(=O)N[C@@H](CC(C)C)C(=O)N[C@@H](CC(C)C)C(=O)N[C@@H](C)C(=O)N[C@@H](CCC(N)=O)C(=O)N[C@@H](CCCNC(=N)N)C(=O)NCC(N)=O)[C@@H](C)CC` [SEQ ID NO: 11, H2N-Y-Aib-E-G-T-F-I-S-D-L-S-I-Aib-K[{AEEA}2-gGlu-C20OH]-D-R-I-H-Q-Aib-E-F-I-E-W-L-L-A-Q-R-G-NH2], in series [1] (setting [6]), the solubility at 24 h was 10700 µg/mL (≈ 2450 µM). Further, the EC50 was greater than 10 nM in series [2], 0.0192 nM in series [4] (setting [8]) and 1.3 nM at human GIP receptor. The IC50 in series [3] was determined as 97 nM; in series [5], 0.2 nM. Further, the Emax on human GIP receptor was 113%.

For the compound `CC[C@H](C)[C@H](NC(=O)[C@H](CCCNC(=N)N)NC(=O)[C@H](CC(=O)O)NC(=O)[C@H](CCCCNC(=O)COCCOCCNC(=O)COCCOCCNC(=O)CC[C@H](NC(=O)CCCCCCCCCCCCCCCCC(=O)O)C(=O)O)NC(=O)C(C)(C)NC(=O)[C@@H](NC(=O)[C@H](CO)NC(=O)[C@H](CC(C)C)NC(=O)[C@H](CC(=O)O)NC(=O)[C@H](CO)NC(=O)[C@@H](NC(=O)[C@@](C)(CC)NC(=O)[C@@H](NC(=O)CNC(=O)[C@H](CCC(=O)O)NC(=O)C(C)(C)NC(=O)[C@@H](N)Cc1ccc(O)cc1)[C@@H](C)O)[C@@H](C)CC)[C@@H](C)CC)C(=O)N[C@@H](Cc1c[nH]cn1)C(=O)N[C@@H](CCC(N)=O)C(=O)N[C@@H](CCC(=O)O)C(=O)N[C@@H](CCC(=O)O)C(=O)N[C@@](C)(Cc1ccccc1)C(=O)N[C@H](C(=O)N[C@@H](CCC(=O)O)C(=O)N[C@@H](Cc1c[nH]c2ccccc12)C(=O)N[C@@H](CC(C)C)C(=O)N[C@@H](CC(C)C)C(=O)N[C@@H](C)C(=O)N[C@@H](CCC(N)=O)C(=O)N[C@@H](CCCNC(=N)N)C(=O)NCC(N)=O)[C@@H](C)CC` [SEQ ID NO: 17, H2N-Y-Aib-E-G-T-Iva-I-S-D-L-S-I-Aib-K[{AEEA}2-gGlu-C18OH]-D-R-I-H-Q-E-E-Mph-I-E-W-L-L-A-Q-R-G-NH2], the solubility in series [1] (pH 7.4, Soluble amount) was found to be 7400 µg/mL (≈ 1700 µM). The EC50 in series [2] is greater than 10 nM; in series [4] (setting [8]) it was 0.0821 nM; in series [4] (HEK-293, without albumin (0% HSA), read-out: EC50 hGIPR 0% HSA) it was 0.00137 nM; at human GIP receptor, 0.8 nM. Besides, the results for the IC50 in series [3] and in series [5] were 935 nM and 0.2 nM, respectively. Also, the Emax on human GIP receptor is 110%.
